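A five-concentration, 48-hour dose response in 96-well plates underlies each endpoint, interpolated linearly between surrounding concentrations. The concentration for 50% growth inhibition is given as GI50.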 The source made the active and inactive calls. Cut-off read from the data, not from the text of the source: active = GI50 up to about 1.1 µM and inactive = higher.
Experiments:
Test in all cases: DTP human tumour cell line panel, 48 h
[1] = system: UO-31
[2] = system: 786-0
[3] = system: COLO 205
[4] = system: SF-295
[5] = system: UACC-62
[6] = system: IGROV-1
[7] = system: HCT-116
[8] = system: HL-60
[9] = system: OVCAR-8
[10] = system: SK-OV-3
[11] = system: ACHN
[12] = system: RXF 393
[13] = system: U-251
[14] = system: SK-MEL-2
[15] = system: TK-10
[16] = system: OVCAR-5
[17] = system: M14
[18] = system: HOP-92

Measured: GI50

CC1=C(C(=O)Nc2ccccc2C)C(c2ccc(N(C)C)cc2)C(C(=O)Nc2ccccc2C)=C(C)N1
inactive: [1] 55.2 µM | [2] 72.3 µM | [3] > 100 µM | [4] > 100 µM | [5] 44.3 µM | [6] > 100 µM | [7] 55.3 µM | [8] 19 µM | [9] 88.5 µM | [10] > 100 µM | [11] 67.6 µM | [12] 35.5 µM | [13] > 100 µM | [14] 36.2 µM | [15] > 100 µM | [16] > 100 µM

COc1cc(C=O)c(-c2c(C=O)ccc3c2OCO3)c(OC)c1OC
inactive: [1] > 100 µM | [2] > 100 µM | [3] 64.9 µM | [4] 60.4 µM | [5] 62.5 µM | [6] > 100 µM | [7] > 100 µM | [17] 74.1 µM | [8] 26.7 µM | [9] > 100 µM | [10] > 100 µM | [11] > 100 µM | [13] 70.1 µM | [14] > 100 µM | [15] > 100 µM | [16] > 100 µM

COc1ccc2c3c([nH]c2c1[N+](=O)[O-])C(C)N(C(=O)/C=C/c1ccccc1)CC3 (stereo not drawn)
inactive: [1] 28 µM | [2] 12.7 µM | [3] 3.46 µM | [4] 2.42 µM | [5] 2.07 µM | [6] > 100 µM | [17] 5.92 µM | [8] 2.64 µM | [9] 3.91 µM | [11] 9.77 µM | [12] 3.27 µM | [13] 7.01 µM | [14] 10.7 µM | [15] 60.3 µM | [16] > 100 µM

COc1cc(Nc2cnc3cc(N)ccc3n2)cc(OC)c1OC
inactive: [1] 61.2 µM | [2] > 100 µM | [3] > 100 µM | [4] 72.4 µM | [5] 64.4 µM | [6] > 100 µM | [7] > 100 µM | [18] > 100 µM | [17] 98.6 µM | [8] 40.1 µM | [9] 78.2 µM | [10] 69.7 µM | [11] > 100 µM | [13] 65.2 µM | [14] > 100 µM | [15] > 100 µM | [16] > 100 µM

CC1(CO)OC(n2cc(C(=O)NC(=O)OCc3ccccc3)c(=O)[nH]c2=O)CC1O (stereo not drawn)
inactive: [1] > 100 µM | [2] > 100 µM | [3] > 100 µM | [4] > 100 µM | [5] > 100 µM | [6] > 100 µM | [7] > 100 µM | [18] > 100 µM | [17] > 100 µM | [8] > 100 µM | [9] > 100 µM | [10] > 100 µM | [11] > 100 µM | [13] > 100 µM | [15] > 100 µM

CCNC(=O)c1ccc(C)c(/N=N/N(C)C)c1
inactive: [1] > 100 µM | [2] > 100 µM | [4] > 100 µM | [5] > 100 µM | [6] > 100 µM | [7] > 100 µM | [18] > 100 µM | [17] > 100 µM | [9] > 100 µM | [11] > 100 µM | [13] > 100 µM | [14] > 100 µM | [15] > 100 µM

Nc1nc(CCl)nc(Nc2ccccc2)n1
inactive: [1] 28.5 µM | [2] 2 µM | [3] 21.8 µM | [4] 23.8 µM | [5] 19 µM | [6] 16.6 µM | [7] 19.5 µM | [18] 18.2 µM | [17] 16.9 µM | [8] 3.27 µM | [9] 30.2 µM | [11] 27 µM | [13] 3.99 µM | [14] 18.8 µM | [15] 24 µM | [16] 19.9 µM
